Measured values published in patent US7138361B2, “Herbicidal heterocycles” (E. I. du Pont de Nemours and Company, priority 2000, dated 2006).

What was measured:
Assay type in all cases: in vivo
[1] = system: velvetleaf (Abutilon theophrasti); test: Test B postemergence; conditions: 13 to 15 days
Summary of the method: (§1)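 Visual injury scores, 0 = no effect to 100 = complete control, assigned against controls after 13 to 15 days in the greenhouse. Compounds formulated in non-phytotoxic solvent plus surfactant and applied to soil after planting (pre) or onto foliage of 1- to 4-leaf plants (post).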

[2] = system: cocklebur (Xanthium strumarium); test: Test B postemergence; conditions: 13 to 15 days
Summary of the method: as §1

[3] = system: blackgrass (Alopecurus myosuroides); test: Test B postemergence; conditions: 13 to 15 days
Summary of the method: as §1

wild oat (Avena fatua) = test: Test B postemergence; conditions: 13 to 15 days
Summary of the method: as §1

[4] = system: barnyardgrass (Echinochloa crus-galli); test: Test B postemergence; conditions: 13 to 15 days
Summary of the method: as §1

[5] = system: giant foxtail (Setaria faberii); test: Test B postemergence; conditions: 13 to 15 days
Summary of the method: as §1

corn (Zea mays) [6] = test: Test B postemergence; conditions: 13 to 15 days
Summary of the method: as §1

[7] = system: crabgrass (Digitaria sanguinalis); test: Test B postemergence; conditions: 13 to 15 days
Summary of the method: as §1

[8] = system: lambsquarters (Chenopodium album); test: Test B postemergence; conditions: 13 to 15 days
Summary of the method: as §1

[9] = system: Surinam grass (Brachiaria decumbens); test: Test B postemergence; conditions: 13 to 15 days
Summary of the method: as §1

[10] = system: pigweed (Amaranthus retroflexus); test: Test B postemergence; conditions: 13 to 15 days
Summary of the method: as §1

[11] = system: morning glory (Ipomoea hederacea); test: Test B postemergence; conditions: 13 to 15 days
Summary of the method: as §1

[12] = system: wheat (Triticum aestivum); test: Test B postemergence; conditions: 13 to 15 days
Summary of the method: as §1

Sunflower = test: Test C preemergence; conditions: scale 0 to 100, 0 no effect, 100 complete control
[13] = system: velvetleaf (Abutilon theophrasti); test: Test B preemergence
Summary of the method: as §1

[14] = system: cocklebur (Xanthium strumarium); test: Test B preemergence
Summary of the method: as §1

[15] = system: barnyardgrass (Echinochloa crus-galli); test: Test B preemergence
Summary of the method: as §1

[16] = system: giant foxtail (Setaria faberii); test: Test B preemergence
Summary of the method: as §1

corn (Zea mays) [17] = test: Test B preemergence
Summary of the method: as §1

rice (Oryza saliva) [18] = test: Test B preemergence
Summary of the method: as §1

[19] = system: crabgrass (Digitaria sanguinalis); test: Test B preemergence
Summary of the method: as §1

[20] = system: lambsquarters (Chenopodium album); test: Test B preemergence
Summary of the method: as §1

[21] = system: Surinam grass (Brachiaria decumbens); test: Test B preemergence
Summary of the method: as §1

[22] = system: pigweed (Amaranthus retroflexus); test: Test B preemergence
Summary of the method: as §1

[23] = system: morning glory (Ipomoea hederacea); test: Test B preemergence
Summary of the method: as §1

Nightshade = test: Test C preemergence; conditions: visual evaluation after 12 to 14 days
rice (Oryza saliva) [24] = test: Test C flooded paddy test; conditions: for Rice plant response rating: Flooded Paddy, scale 0 to 100, 0 no effect, 100 complete control; for Plant response rating, Rice: flooded paddy test, scale 0 to 100 (0 no effect, 100 complete control)
Summary of the method: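 2-leaf-stage plants, flooded paddy; treated; greenhouse 12–14 days; compared with controls by eye; rated 0–100 (0 none, 100 complete control).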

[25] = Rate 125 g/ha, scale 0 (no effect) to 100 (complete control)
[26] = Rate 500 g/ha, scale 0 to 100, 0 is no effect, 100 is complete control
[27] = Preemergence, Rate 500 g/ha, scale 0 to 100, 0 no effect, 100 complete control
[28] = preemergence, Rate 125 g/ha, scale 0 to 100, 0 no effect, 100 complete control
[29] = preemergence, Rate 125 g/ha, scale of 0 to 100 where 0 is no effect and 100 is complete control, 13 to 15 days

CCC(CC)c1ccn(C2SCN(c3cccc(C(F)(F)F)c3)C2=O)n1 (stereo not shown) [Compound 25]
30: Plant response rating, Rice (rice (Oryza saliva) [24]; Rate 62 g/ha)
90: Plant response rating, Crabgrass [7, 26] | Plant response rating, Morningglory [11, 25] | Plant response rating, Morningglory [23, 27] | Plant response rating (0 to 100), Nightshade (Nightshade; Rate 250 g/ha)
100: Plant response rating, Barnyardgrass [4, 25] | Plant response rating, Barnyardgrass [4, 26] | Plant response rating, Lambsquarters [8, 25] | Plant response rating, Lambsquarters [8, 26] | Plant response rating, Pigweed [10, 26] | Plant response rating, Morningglory [11, 26] | Plant response rating, Barnyardgrass [15, 27] | Plant response rating, Barnyardgrass [15, 28] | Plant response rating, Foxtail, Giant [16, 27] | Plant response rating, Foxtail, Giant [16, 28] | Plant response rating, Crabgrass [19, 27] | Plant response rating, Crabgrass [19, 28] | Plant response rating, Lambsquarters [20, 27] | Plant response rating, Lambsquarters [20, 28] | Plant response rating, Pigweed [22, 27] | Plant response rating, Pigweed [22, 28]
70: Plant response rating, Cocklebur [2, 26] | Plant response rating, Pigweed [10, 25]
60: Plant response rating, Cocklebur [2, 25] | Plant response rating, Corn (corn (Zea mays) [6]; [26]) | Plant response rating, Crabgrass [7, 25] | Rice plant response rating (rice (Oryza saliva) [24]; Rate 250 g/ha)
40: Plant response rating, Surinam grass [9, 26] | Plant response rating, Sunflower (Sunflower; Rate 125 g/ha)
20: Plant response rating, Velvetleaf [1, 26] | Plant response rating, Foxtail, Giant [5, 25] | Plant response rating, Rice (rice (Oryza saliva) [24]; Rate 125 g/ha)
80: Plant response rating, Foxtail, Giant [5, 26] | Plant response rating, Surinam grass [21, 27] | Plant response rating, Surinam grass [21, 28] | Rice plant response rating (rice (Oryza saliva) [24]; Rate 500 g/ha)
0: Plant response rating, Velvetleaf [1, 25] | Plant response rating, Blackgrass [3, 25] | Plant response rating, Blackgrass [3, 26] | Plant response rating, Wild Oat (wild oat (Avena fatua); [25]) | Plant response rating, Wild Oat (wild oat (Avena fatua); [26]) | Plant response rating, Corn (corn (Zea mays) [6]; [25]) | Plant response rating, Surinam grass [9, 25] | Plant response rating, Wheat [12, 25] | Plant response rating, Wheat [12, 26] | Plant response rating, Velvetleaf [13, 27] | Plant response rating, Velvetleaf [13, 28] | Plant response rating, Cocklebur [14, 27] | Plant response rating, Cocklebur [14, 28] | Plant response rating, Corn (corn (Zea mays) [17]; [27]) | Plant response rating, Corn (corn (Zea mays) [17]; [28]) | Plant response rating, Rice (rice (Oryza saliva) [18]; [27]) | Plant response rating, Rice (rice (Oryza saliva) [18]; [28]) | Plant response rating, Morningglory [23, 28]

CCC(C)c1ccn(C2OCN(c3cccc(OC(F)(F)F)c3)C2=O)n1 (stereo not shown) [Compound 67]
30: Plant response rating, Surinam grass [9, 25] | Plant response rating, Surinam grass [9, 26]
0: Plant response rating, Velvetleaf [1, 25] | Plant response rating, Cocklebur [2, 25] | Plant response rating, Blackgrass [3, 25] | Plant response rating, Blackgrass [3, 26] | Plant response rating, Wild Oat (wild oat (Avena fatua); [25]) | Plant response rating, Wild Oat (wild oat (Avena fatua); [26]) | Plant response rating, Corn (corn (Zea mays) [6]; [25]) | Plant response rating, Corn (corn (Zea mays) [6]; [26]) | Plant response rating, Pigweed [10, 25] | Plant response rating, Pigweed [10, 26] | Plant response rating, Morningglory [11, 25] | Plant response rating, Morningglory [11, 26] | Plant response rating, Wheat [12, 25] | Plant response rating, Wheat [12, 26] | Plant response rating, Sunflower (Sunflower; Rate 125 g/ha) | Plant response rating, Sunflower (Sunflower; Rate 250 g/ha) | Plant response rating, Velvetleaf [13, 27] | Plant response rating, Velvetleaf [13, 29] | Plant response rating, Cocklebur [14, 27] | Plant response rating, Cocklebur [14, 29] | Plant response rating, Corn (corn (Zea mays) [17]; [29]) | Plant response rating, Morningglory [23, 27] | Plant response rating, Morningglory [23, 29]
80: Plant response rating, Crabgrass [19, 27]
50: Plant response rating, Crabgrass [7, 25] | Plant response rating, Surinam grass [21, 27]
100: Plant response rating, Barnyardgrass [4, 26] | Plant response rating, Crabgrass [7, 26] | Plant response rating, Lambsquarters [8, 26] | Plant response rating, Barnyardgrass [15, 27] | Plant response rating, Lambsquarters [20, 27] | Plant response rating, Lambsquarters [20, 29] | Plant response rating, Pigweed [22, 27] | Plant response rating, Pigweed [22, 29]
90: Plant response rating, Barnyardgrass [4, 25] | Plant response rating, Lambsquarters [8, 25] | Rice plant response rating (rice (Oryza saliva) [24]; Rate 500 g/ha)
60: Plant response rating, Cocklebur [2, 26] | Plant response rating, Barnyardgrass [15, 29] | Plant response rating (0 to 100), Nightshade (Nightshade; Rate 500 g/ha) | Rice plant response rating (rice (Oryza saliva) [24]; Rate 250 g/ha)
20: Plant response rating, Velvetleaf [1, 26] | Plant response rating, Foxtail, Giant [5, 25] | Plant response rating, Corn (corn (Zea mays) [17]; [27]) | Plant response rating, Crabgrass [19, 29] | Plant response rating, Surinam grass [21, 29] | Plant response rating, Rice (rice (Oryza saliva) [24]; Rate 62 g/ha)
40: Plant response rating, Foxtail, Giant [5, 26] | Plant response rating, Foxtail, Giant [16, 27] | Plant response rating, Foxtail, Giant [16, 29] | Plant response rating, Rice (rice (Oryza saliva) [18]; [27]) | Plant response rating, Rice (rice (Oryza saliva) [18]; [29]) | Plant response rating, Rice (rice (Oryza saliva) [24]; Rate 125 g/ha)

COc1cccc(N2CCC(n3ccc(C(C)(C)C)n3)C2=O)c1 (stereo not shown) [Compound 87]
50: Plant response rating, Lambsquarters [8, 26]
60: Plant response rating, Corn (corn (Zea mays) [17]; [27])
70: Plant response rating, Rice (rice (Oryza saliva) [18]; [29])
40: Plant response rating, Pigweed [10, 26]
30: Plant response rating, Barnyardgrass [4, 26] | Plant response rating, Corn (corn (Zea mays) [17]; [29])
0: Plant response rating, Velvetleaf [1, 25] | Plant response rating, Velvetleaf [1, 26] | Plant response rating, Cocklebur [2, 25] | Plant response rating, Cocklebur [2, 26] | Plant response rating, Blackgrass [3, 25] | Plant response rating, Blackgrass [3, 26] | Plant response rating, Wild Oat (wild oat (Avena fatua); [25]) | Plant response rating, Wild Oat (wild oat (Avena fatua); [26]) | Plant response rating, Barnyardgrass [4, 25] | Plant response rating, Foxtail, Giant [5, 25] | Plant response rating, Foxtail, Giant [5, 26] | Plant response rating, Corn (corn (Zea mays) [6]; [25]) | Plant response rating, Corn (corn (Zea mays) [6]; [26]) | Plant response rating, Crabgrass [7, 25] | Plant response rating, Crabgrass [7, 26] | Plant response rating, Lambsquarters [8, 25] | Plant response rating, Surinam grass [9, 25] | Plant response rating, Surinam grass [9, 26] | Plant response rating, Pigweed [10, 25] | Plant response rating, Morningglory [11, 25] | Plant response rating, Morningglory [11, 26] | Plant response rating, Wheat [12, 25] | Plant response rating, Wheat [12, 26] | Plant response rating, Velvetleaf [13, 27] | Plant response rating, Velvetleaf [13, 29] | Plant response rating, Cocklebur [14, 27] | Plant response rating, Cocklebur [14, 29] | Plant response rating, Morningglory [23, 27] | Plant response rating, Morningglory [23, 29] | Plant response rating, Rice (rice (Oryza saliva) [24]; Rate 62 g/ha)
100: Plant response rating, Barnyardgrass [15, 27] | Plant response rating, Barnyardgrass [15, 29] | Plant response rating, Foxtail, Giant [16, 27] | Plant response rating, Foxtail, Giant [16, 29] | Plant response rating, Rice (rice (Oryza saliva) [18]; [27]) | Plant response rating, Crabgrass [19, 27] | Plant response rating, Crabgrass [19, 29] | Plant response rating, Lambsquarters [20, 27] | Plant response rating, Lambsquarters [20, 29] | Plant response rating, Surinam grass [21, 27] | Plant response rating, Pigweed [22, 27] | Plant response rating, Pigweed [22, 29]
90: Plant response rating (0 to 100), Nightshade (Nightshade; Rate 500 g/ha)
80: Plant response rating, Surinam grass [21, 29] | Rice plant response rating (rice (Oryza saliva) [24]; Rate 500 g/ha)
20: Plant response rating, Sunflower (Sunflower; Rate 250 g/ha) | Rice plant response rating (rice (Oryza saliva) [24]; Rate 250 g/ha) | Plant response rating, Rice (rice (Oryza saliva) [24]; Rate 125 g/ha)
